Test results: patent US12391825B2, “Thermoplastic polymer composition for micro 3D printing and uses thereof” (priority 2020, dated 2025)

Tested on: cardiac tissues
Conditions: compared with cardiac tissue without compound (baseline)
Procedure: Human iPSC cardiomyocytes (CMs) were differentiated from hiPSC line BJ1D by using monolayer differentiation protocols (Lian, et al. 2013; Yang, et al. 2008). The disassociation of cardiomyocytes into single cells was performed at day 21 of stem cell differentiation, using previous methods (Yang, et al. 2008). The disassociated cells and cardiac fibroblast (Lonza, NHCF-V) were mixed to reach a cell number ratio of 10:1. The resultant cells were remixed in a collagen hydrogel at a cell number of 5.5×10^7 cells/mL. […]
Cardiac cultured in a multiwell plate was placed in a chamber (37° C., 5% CO2) of fluorescent microscope (Olympus Corporation). ⅓rd of the media was extracted from one well of the multiwell-plate device. […] After 10-15 min, videos in the green and red channel were recorded. The force and Ca^2+ transients were measured under electrical stimulation at 1 Hz. […] Ca^2+ transients were recorded under fluorescent microscope using a green-light channel (λex490 nm/λem525 nm). The ratio of peak fluorescence to baseline fluorescence intensity was measured the relative Ca^2+ change in the tissues by Image J software (NIH) as described previously (Zhao, et al. 2019). […]
With built-in sensors and electrodes, the contractile force of tissues can be measured in situ. […]

SMILES: CCN(CC)CC(=O)Nc1c(C)cccc1C [lidocaine]
- electrical excitability of a cardiac tissue: inhibited
